In paper PMC10928712, “High Target Homology Does Not Guarantee Inhibition: Aminothiazoles Emerge as Inhibitors of Plasmodium falciparum” (ACS Infectious Diseases, 2024):

Experiments:
[1] = Metabolic stability in human liver S9 fraction; assay type: in vitro ADME; conditions: human, pooled liver S9 fraction, 1 μM compound
Protocol: For the evaluation of combined phase I and phase II metabolic stability, the compound (1 μM) was incubated with 1 mg/mL pooled liver S9 fraction (XenoTech), 2 mM NADPH, 1 mM UDPGA, 10 mM MgCl2, 5 mM GSH, and 0.1 mM PAPS at 37 °C for 0, 5, 15, 30, and 60 min. The metabolic stabilities of testosterone (1 μM), verapamil (1 μM), and propranolol (1 μM) were determined in parallel to confirm the enzymatic activity of the S9 fraction. The incubation was stopped by precipitation of S9 enzymes with two volumes of cold acetonitrile containing internal standard (150 nM diphenhydramine). Samples were stored on ice for 10 min, and precipitated protein was removed by centrifugation (15 min, 4 °C, 4000 rpm). The concentration of the remaining test compound at the different time points was analyzed by LC-MS/MS (TSQ Quantum Access MAX, Thermo Fisher, Dreieich, Germany) and used to determine half-life (t1/2).

[2] = test system: MEP pathway and TCA cycle metabolites in P. falciparum 3D7; experiment: LC-MS/MS profiling of MEP pathway, TCA cycle, glycolytic and pentose phosphate metabolites in P. falciparum; assay type: cell-based, Plasmodium falciparum; conditions: 12 h
P. falciparum 3D7 = experiment: IDP rescue assay, P. falciparum 3D7; assay type: cell-based; conditions: Plasmodium falciparum
Protocol: Fidock (Columbia University). […] P. falciparum cultures were treated as described in method II. For IDP (Isoprenoids.com) rescue experiments, 125 μM IDP was added to the appropriate wells for the duration of the experiment. The well-described DXR inhibitor FSM was used as a positive control. IC50 values were calculated by nonlinear regression analysis using GraphPad Prism software. All experiments were performed at least in triplicate, and data reported represent the mean ± SD.

## Cc1nc(N)sc1-c1csc(Nc2ccc(C(F)(F)F)cc2)n1 [compound 1]
[1]
  half-life at 1 μM: > 4 h
[2]; 1 at 7.65 μM (5× IC50), UNT 1,163, P >0,99999
  DOXP, Mean of + 1: 1,163
[2]; 1 at 7.65 μM, UNT 11,24, P 0,720090
  MEcDP, Mean of + 1: 10,20
[2]; 1 at 7.65 μM, UNT 11,98, P 0,005029
  PEP, Mean of + 1: 5,297
[2]; 1 at 7.65 μM, UNT 13,48, P 0,003896
  GC3P, Mean of + 1: 6,757
[2]; 1 at 7.65 μM, UNT 14,78, P 0,037010
  3PGA, Mean of + 1: 8,127
[2]; 1 at 7.65 μM, UNT 17,23, P 0,044056
  G6P, Mean of + 1: 6,793
[2]; 1 at 7.65 μM, UNT 53,67, P 0,001940
  MAL, Mean of + 1: 23,30
[2]; 1 at 7.65 μM, UNT 61,07, P 0,050194
  2PGA, Mean of + 1: 31,49
[2]; 1 at 7.65 μM, UNT 64,80, P 0,008553
  CIT, Mean of + 1: 25,15
[2]; 1 at 7.65 μM, UNT 0,06667, P 0,587914
  CDP-ME, Mean of + 1: 0,07667
[2]; 1 at 7.65 μM, UNT 90,64, P 0,340281
  S7P, Mean of + 1: 54,93
[2]; 1 at 7.65 μM, UNT 102,5, P 0,030535
  PYR, Mean of + 1: 28,19
[2]; 1 at 7.65 μM, UNT 103,0, P 0,112890
  G1P/F6P, Mean of + 1: 57,13
[2]; 1 at 7.65 μM, UNT 104,2, P 0,388380
  LAC, Mean of + 1: 80,23
[2]; 1 at 7.65 μM, UNT 118,0, P 0,002161
  SUC, Mean of + 1: 60,23
[2]; 1 at 7.65 μM, UNT 0,1667, P 0,032540
  DMADP, Mean of + 1: 0,1033
[2]; 1 at 7.65 μM, UNT 0,2200, P 0,306022
  HDMADP, Mean of + 1: 0,1833
[2]; 1 at 7.65 μM, UNT 0,4233, P 0,070645
  MEP, Mean of + 1: 0,3100
[2]; 1 at 7.65 μM, UNT 1668, P 0,003295
  FUM, Mean of + 1: 727,7
[2]; 1 at 7.65 μM, UNT 1,877, P 0,144422
  ACO, Mean of + 1: 1,140
[2]; 1 at 7.65 μM, UNT 5,757, P 0,038874
  RU5P/RUP, Mean of + 1: 2,520
P. falciparum 3D7; 3D7, 72 h, + IDP (125 μM)
  IC50: 2400 ± 200 nM
P. falciparum 3D7; 3D7, without IDP
  IC50: 1900 ± 200 nM
